Assay results from patent publication US20250206721A1, “Prostaglandin Receptor EP2 Antagonists, Derivatives, and Uses Related Thereto” (Emory University, priority 2019, published 2025).
Converted amounts (≈) assume the structure as drawn. Marks after values point to notes of the source that are not given here.

Experiments:
[1] = Kinetic aqueous solubility in PBS by nephelometry; conditions: for Aqueous Solubility: PBS buffer (pH 7.4) with 1% DMSO, nephelometry
[2] = pH 2
human EP2 receptor = target: T1, human EP2 receptor (Homo sapiens, UniProt P43116); experiment: Cell-based cAMP TR-FRET assay, Schild KB on EP2; conditions: for Kb / EP2 KB: Schild KB, agonist PGE2, antagonist concentration 1 μM, C6G cells expressing human EP2; for fold less potent than equivalent derivative: 11a vs 8b, 11b vs 8g, 11c vs 8f; for fold less EP2 potency in comparison to 2a: comparator 2a
T1 construct: expressed in transfected cells

human EP4 receptor = human EP4 receptor (Homo sapiens, UniProt P35408); experiment: Cell-based cAMP TR-FRET assay on EP4 (agonist PGE2); conditions: selectivity index EP4 KB/EP2 KB, fold
human IP receptor = human IP receptor (Homo sapiens, UniProt P43119); experiment: Cell-based cAMP TR-FRET assay on IP (agonist iloprost); conditions: selectivity index IP KB/EP2 KB, fold
in vivo = conditions: C57BL/6, mouse, ip, 10 mg/kg

T1 sequence (P43116 whole entry): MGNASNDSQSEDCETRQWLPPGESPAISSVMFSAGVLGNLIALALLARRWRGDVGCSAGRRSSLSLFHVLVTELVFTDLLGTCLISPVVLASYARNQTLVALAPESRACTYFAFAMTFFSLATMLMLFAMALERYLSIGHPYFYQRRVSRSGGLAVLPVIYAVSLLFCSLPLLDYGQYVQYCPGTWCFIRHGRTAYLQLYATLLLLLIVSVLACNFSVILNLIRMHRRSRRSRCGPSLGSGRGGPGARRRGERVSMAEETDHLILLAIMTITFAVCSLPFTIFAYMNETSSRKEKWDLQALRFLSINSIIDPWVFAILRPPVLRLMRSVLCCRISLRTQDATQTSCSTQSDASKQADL
human IP receptor, sequence (P43119 whole entry): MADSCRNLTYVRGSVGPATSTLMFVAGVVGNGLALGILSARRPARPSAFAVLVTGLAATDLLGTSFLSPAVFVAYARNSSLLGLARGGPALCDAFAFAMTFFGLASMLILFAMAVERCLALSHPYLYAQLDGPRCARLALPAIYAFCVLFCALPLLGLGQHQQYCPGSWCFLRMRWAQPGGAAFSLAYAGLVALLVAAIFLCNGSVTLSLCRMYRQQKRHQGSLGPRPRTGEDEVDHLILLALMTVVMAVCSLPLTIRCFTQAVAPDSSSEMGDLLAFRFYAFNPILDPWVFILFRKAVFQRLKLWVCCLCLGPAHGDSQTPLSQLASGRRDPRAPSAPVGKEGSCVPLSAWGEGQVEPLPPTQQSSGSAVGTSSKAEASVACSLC
human EP4 receptor, sequence (P35408 whole entry): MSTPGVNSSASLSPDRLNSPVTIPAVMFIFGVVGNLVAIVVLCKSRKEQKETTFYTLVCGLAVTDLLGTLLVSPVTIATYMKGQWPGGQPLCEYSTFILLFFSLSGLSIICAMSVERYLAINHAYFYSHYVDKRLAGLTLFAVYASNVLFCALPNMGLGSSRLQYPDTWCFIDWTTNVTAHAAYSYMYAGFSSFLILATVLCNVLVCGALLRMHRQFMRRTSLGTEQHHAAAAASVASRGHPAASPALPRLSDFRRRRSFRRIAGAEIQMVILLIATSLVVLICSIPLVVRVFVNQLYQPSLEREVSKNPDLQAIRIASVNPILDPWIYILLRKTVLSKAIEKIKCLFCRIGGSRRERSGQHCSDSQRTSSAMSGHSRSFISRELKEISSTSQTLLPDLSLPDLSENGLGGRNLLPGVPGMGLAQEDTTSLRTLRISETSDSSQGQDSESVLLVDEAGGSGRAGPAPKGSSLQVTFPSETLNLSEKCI

SMILES	Aqueous Solubility [1] [µM]	Solubility in SGF [2]	further results
Cc1[nH]c2ccccc2c1CCNC(=O)c1ccc(-c2ccccc2)nc1 [Compound 8a, N-(2-(2-Methyl-1H-indol-3-yl)ethyl)-6-phenylnicotinamide]	25	>100 µM	
Cc1[nH]c2ccccc2c1CCNC(=O)c1cnc(Nc2cccc(O)n2)nc1 [Compound 20i, 2-((6-Hydroxypyridin-2-yl)amino)-N-(2-(2-methyl-1H-indol-3-yl)ethyl)pyrimidine-5-carboxamide]	10		
CC(=O)c1ccc(Nc2ncc(C(=O)NCCc3c(C)[nH]c4ccccc34)cn2)nc1 [Compound 20l, 2-((5-Acetylpyridin-2-yl)amino)-N-(2-(2-methyl-1H-indol-3-yl)ethyl)pyrimidine-5-carboxamide]			Kb (human EP2 receptor): 166 nM; fold reduced EP2 potency in comparison to 20b (human EP2 receptor; comparator 20b): 20 fold
COc1cccc(-c2ccc(C(=O)NCCc3c(C)[nH]c4ccccc34)cn2)c1 [Compound 8b, 6-(3-Methoxyphenyl)-N-(2-(2-methyl-1H-indol-3-yl)ethyl)nicotinamide]	13	>100 µM	
COc1cc(OC)cc(-c2ccc(C(=O)NCCc3c(C)[nH]c4ccccc34)nc2)c1 [Compound 11b, 5-(3,5-Dimethoxyphenyl)-N-(2-(2-methyl-1H-indol-3-yl)ethyl)picolinamide]	10	10 µM (≈ 4.15 µg/mL)	fold less potent than equivalent derivative (human EP2 receptor): 11 fold
Cc1cc(C)nc(Nc2ncc(C(=O)NCCc3c(C)nn4ccccc34)cn2)c1 [Compound 24g, 2-((4,6-Dimethylpyridin-2-yl)amino)-N-(2-(2-methylpyrazolo[1,5-a]pyridin-3-yl)ethyl)pyrimidi-ne-5-carboxamide]	70		
Cc1[nH]c2ccccc2c1CCNC(=O)c1cnc(Nc2cc(C(C)(C)C)ccn2)nc1 [Compound 20d, 2-((4-(tert-Butyl)pyridin-2-yl)amino)-N-(2-(2-methyl-1H-indol-3-yl)ethyl)pyrimidine-5-carboxamide]	5		
Cc1[nH]c2ccccc2c1CCNC(=O)c1ccc(N2CCOCC2)nc1 [Compound 2b, N-(2-(2-Methyl-1H-indol-3-yl)ethyl)-6-morpholinonicotinamide]	206		fold increased aqueous solubility ([1]; comparator 2a): 3 fold; Kb (human EP2 receptor): 118 nM; fold less EP2 potency in comparison to 2a (human EP2 receptor): 4 fold
COc1ccccc1-c1ccc(C(=O)NCCc2c(C)[nH]c3ccccc23)cc1F [Compound 14b, 2-Fluoro-2′-methoxy-N-(2-(2-methyl-1H-indol-3-yl)ethyl)-[1,1′-biphenyl]-4-carboxamide]	10	10^d μM	
Cc1cccc(Nc2ncc(C(=O)NCCc3c(C)[nH]c4ccccc34)cn2)n1 [Compound 20e, N-(2-(2-Methyl-1H-indol-3-yl)ethyl)-2-((6-methylpyridin-2-yl)amino)pyrimidine-5-carboxamide]	25		S.I (EP4/EP2) (human EP4 receptor): >1500; S.I (IP/EP2) (human IP receptor): >1500
Cc1[nH]c2ccccc2c1CCNC(=O)c1cnc(Nc2cccc(C#N)n2)nc1 [Compound 20g, 2-((6-Cyanopyridin-2-yl)amino)-N-(2-(2-methyl-1H-indol-3-yl)ethyl)pyrimidine-5-carboxamide]	13		
COc1ccccc1-c1ccc(C(=O)NCCc2c(C)[nH]c3ccccc23)cn1 [Compound 8c, 6-(2-Methoxyphenyl)-N-(2-(2-methyl-1H-indol-3-yl)ethyl)nicotinamide]	28	>100 µM	half-life (in vivo): < 1 h
Cc1[nH]c2ccccc2c1CCNC(=O)c1cnc(Nc2ccncc2)nc1 [Compound 20p, N-(2-(2-Methyl-1H-indol-3-yl)ethyl)-2-(pyridin-4-ylamino)pyrimidine-5-carboxamide]	38		EP2 KB (human EP2 receptor): complete loss of potency
COc1cc(OC)cc(-c2ccc(C(=O)NCCc3c(C)[nH]c4ccccc34)cn2)c1 [Compound 8g, 6-(3,5-Dimethoxyphenyl)-N-(2-(2-methyl-1H-indol-3-yl)ethyl)nicotinamide]	12	>100 µM	half-life (in vivo): < 1 h
Cc1cc(C)nc(Nc2ncc(C(=O)NCCc3c(C(F)(F)F)[nH]c4ccccc34)cn2)c1 [Compound 24f, 2-((4,6-Dimethylpyridin-2-yl)amino)-N-(2-(2-(trifluoromethyl)-1H-indol-3-yl)ethyl)pyrimidine-5-carboxamide]	45		Kb (human EP2 receptor): 66 nM; fold reduced EP2 potency in comparison to 20o (human EP2 receptor; comparator 20o): 8 fold
Cc1[nH]c2ccccc2c1CCNC(=O)c1cnc(Nc2cccc(C(C)(C)C)n2)nc1 [Compound 20n, 2-((6-(tert-Butyl)pyridin-2-yl)amino)-N-(2-(2-methyl-1H-indol-3-yl)ethyl)pyrimidine-5-carboxamide]	25		
CC(=O)Nc1ccc(-c2ccc(C(=O)NCCc3c(C)[nH]c4ccccc34)nc2)cc1 [Compound 11c, 5-(4-Acetamidophenyl)-N-(2-(2-methyl-1H-indol-3-yl)ethyl)picolinamide]	10	10 µM (≈ 4.12 µg/mL)	
Cc1ccc(Nc2ncc(C(=O)NCCc3c(C)[nH]c4ccccc34)cn2)c(C)n1 [Compound 20r, 2-((2,6-Dimethylpyridin-3-yl)amino)-N-(2-(2-methyl-1H-indol-3-yl)ethyl)pyrimidine-5-carboxamide]	100		fold reduced EP2 potency (human EP2 receptor; 20f vs. 20c, 20n vs. 20e, comparator of 20g and 20r not stated): 10 fold; Kb (human EP2 receptor): 88.1 nM
Cc1[nH]c2ccccc2c1CCNC(=O)c1ccc(-c2ccccc2F)nc1 [Compound 8e, 6-(2-Fluorophenyl)-N-(2-(2-methyl-1H-indol-3-yl)ethyl)nicotinamide]	22	>100 µM	fold less EP2 potency in comparison to 2a (human EP2 receptor): 2 fold; fold less EP2 potency in comparison to 8c (human EP2 receptor; comparator 8c (14b vs. 14c or 8c)): 4 fold
COc1ccc2[nH]c(C)c(CCNC(=O)c3cnc(Nc4cc(C)cc(C)n4)nc3)c2c1 [Compound 24e, 2-((4,6-Dimethylpyridin-2-yl)amino)-N-(2-(5-methoxy-2-methyl-1H-indol-3-yl)ethyl)pyrimidine-5-carboxamide]	20		
CC(=O)Nc1ccc(-c2ccc(C(=O)NCCc3c(C)[nH]c4ccccc34)cn2)cc1 [Compound 8f, 6-(4-Acetamidophenyl)-N-(2-(2-methyl-1H-indol-3-yl)ethyl)nicotinamide]	25	>100 µM	
Cc1cc(C)nc(Nc2ncc(C(=O)NCCc3c(C)[nH]c4ccc(F)cc34)cn2)c1 [Compound 24a, 2-((4,6-Dimethylpyridin-2-yl)amino)-N-(2-(5-fluoro-2-methyl-1H-indol-3-yl)ethyl)pyrimidine-5-carboxamide]	5		S.I (IP/EP2) (human IP receptor): 770
COc1cccc(-c2ccc(C(=O)NCCc3c(C)[nH]c4ccccc34)nc2)c1 [Compound 11a, 5-(3-Methoxyphenyl)-N-(2-(2-methyl-1H-indol-3-yl)ethyl)picolinamide]	14	14 µM (≈ 5.4 µg/mL)	fold less potent than equivalent derivative (human EP2 receptor): 4 fold
COc1ccccc1-c1ccc(C(=O)NCCc2c(C)[nH]c3ccccc23)cc1 [Compound 14c, 2′-Methoxy-N-(2-(2-methyl-1H-indol-3-yl)ethyl)-[1,1′-biphenyl]-4-carboxamide]	5		
CCC(C)(O)c1cccc(Nc2ncc(C(=O)NCCc3c(C)[nH]c4ccccc34)cn2)n1 (stereo not drawn) [Compound 20m, 2-((6-(2-Hydroxybutan-2-yl)pyridin-2-yl)amino)-N-(2-(2-methyl-1H-indol-3-yl)ethyl) pyrimidine-5-carboxamide]	6		
CC(=O)c1cccc(Nc2ncc(C(=O)NCCc3c(C)[nH]c4ccccc34)cn2)n1 [Compound 20j, 2-((6-Acetylpyridin-2-yl)amino)-N-(2-(2-methyl-1H-indol-3-yl)ethyl)pyrimidine-5-carboxamide]	5		
Cc1[nH]c2ccccc2c1CCNC(=O)c1ccc(-c2ccccc2O)nc1 [Compound 8d, 6-(2-Hydroxyphenyl)-N-(2-(2-methyl-1H-indol-3-yl)ethyl)nicotinamide]	8	50^c μM	
Cc1cc(C)nc(Nc2ncc(C(=O)NCC(=O)c3c(C)[nH]c4ccccc34)cn2)c1 [Compound 24h, 2-((4,6-Dimethylpyridin-2-yl)amino)-N-(2-(2-methyl-1H-indol-3-yl)-2-oxoethyl)pyrimidine-5-carboxamide]			EP2 KB (human EP2 receptor): eliminated the potency
